# Results from patent US7465401B2, “Treatment of chloraminated water” (Water Corporation, priority 2003, dated 2008).
# Key:
# [1] = tested on: ammonia oxidising bacteria, cultured from a chloraminated system; test: Ammonia level over days in a dechlorinated chloraminated water sample dosed with ammonia and ammonia oxidising bacteria; type: cell-based
# Description: After the elimination of chlorine, a chloraminated water bulk sample was dosed with excess ammonia to achieve 1.50 mg/L ammonia-N concentration. The bulk sample was dosed with ammonia oxidising bacteria, cultured from a chloraminated system.
# The bulk sample was then subsampled into 9 separate portions. These portions were dosed as follows: • 1. no dosage • 2. 0.1 mg/L copper • 3. 0.2 mg/L copper • 4. 0.3 mg/L copper • 5. 0.2 mg/L zinc • 6. 0.4 mg/L zinc • 7. 0.2 mg/L copper, 0.1 mg/L zinc • 8. 0.1 mg/L copper, 0.2 mg/L zinc • 9. 0.2 mg/L copper, 0.4 mg/L zinc.
# The samples were measured over subsequent days to determine the ammonia levels.
# nitrification = test: Field trial: covered reservoir dosed with copper sulphate; ammonia, nitrite and nitrate measured at inlet and outlet; conditions: copper about 0.25 mg/L for six weeks
# Description: The levels of ammonia, nitrite and nitrate were measured both at reservoir inlet and outlet.
# [2] = 0.1 mg/L copper, 1.50 mg/L ammonia-N at start
# [3] = 0.2 mg/L copper, 1.50 mg/L ammonia-N at start
# [4] = 0.3 mg/L copper, 1.50 mg/L ammonia-N at start
Compound,effect of zinc on the efficacy of the copper dose ([1]; zinc 0.1-0.4 mg/L in conjunction with copper 0.1-0.2 mg/L),"time after which the ammonia level begins to fall [1, 2]","time to fall to the base ammonia level of about 0.1 mg/L [1, 2] [days]","time the ammonia level was maintained [1, 3]","time to reach the base ammonia level [1, 3] [days]","time the ammonia level was maintained [1, 4] [days]","time to reach the base ammonia level [1, 4] [days]",microbiological activity following dosing (nitrification),nitrate and nitrite levels at reservoir outlet (nitrification; detention period 3.5 days),percentage of ammonia surviving from inlet to outlet (nitrification; detention period 3.5 days)
[Zn] [zinc],decrease the efficacy of the copper dose,–,–,–,–,–,–,–,–,–
[Cu] [copper],–,about seven,~12,about 15 days,19,34,40,significant reduction,substantial reduction,substantial increase
